Laboratory results reported in patent publication US20240150293A1, “SPIROCYCLOHEXANE DERIVATIVES, PHARMACEUTICAL COMPOSITIONS CONTAINING THEM AND THEIR USES AS ANTI-APOPTOTIC INHIBITORS” (LES LABORATOIRES SERVIER, priority 2021, published 2024).
Read-outs that look alike come from different tables or passages of the source.

Experiments:
[1] = target: Cy5-labelled Mcl1 (amino acids 171-321) C286S protein (UniProtKB Q07820) (Homo sapiens (Human), UniProt Q07820, C286S); experiment: Inhibition of Mcl-1 by the fluorescence quenching assay (Example A, Method B); type: binding
Cy5-labelled Mcl1 (amino acids 171-321) C286S protein, sequence (Q07820 171-321 C286S): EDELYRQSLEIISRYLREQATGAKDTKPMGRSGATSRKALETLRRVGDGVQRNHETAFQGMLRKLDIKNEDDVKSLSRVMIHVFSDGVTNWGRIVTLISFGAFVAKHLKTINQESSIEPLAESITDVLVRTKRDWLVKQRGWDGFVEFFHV
Outline: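 Cy5-labelled Mcl1 171-321 C286S (1 nM) quenched by TQ5WS-labelled PUMA peptide (10, 20 or 400 nM); displacement raises fluorescence (Ex 620/Em 680 nm). Buffer 10 mM HEPES, 150 mM NaCl, 0.05% Tween 20, pH 7.4, 5% DMSO; 2 h at room temperature, 11-point curves, IC50 converted to Ki (cKi/eKi).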

[2] = system: H929 multiple myeloma tumor line; experiment: In vitro cytotoxicity, MTT assay (Example B, Method A); type: cell-based; conditions: H929 cells, 48 hours exposure, read-out: C50
Experimental: The cytotoxicity studies were carried out on the H929 multiple myeloma tumor line.
The cells are distributed onto microplates and exposed to the test compounds for 48 hours. The cell viability is then quantified by a colorimetric assay, the Microculture Tetrazolium Assay (Carmichael et al, Cancer Res. 1987, 47, 939-942).
The results are expressed in C50 which means concentration corresponding to […] of effect/inhibition.

Row | Structure (SMILES) | Ki [1] [µM] | IC50 [2] [µM] | IC50 ([2]; Homo sapiens, NCI-H929, 48 h) [µM]
1 | O=C(O)[C@]1(Nc2cccc(Cl)c2)CC[C@@]2(CC1)c1ccccc1CC2CC(COc1ccnc2ccsc12)Cc1ccccc1 (single isomer, unassigned) [Example 560, (1r,4r)-2′-{2-benzyl-3-[(thieno[3,2-b]pyridin-7-yl)oxy]propyl}-4-(3-chloroanilino)-2′,3′-dihydrospiro[cyclohexane-1,1′-indene]-4-carboxylic acid] | 0.092 | 12.6 | –
2 | Cc1c(OC[C@H](C)C[C@H]2Cc3ccccc3[C@]23CC[C@@](Nc2cccc(Cl)c2)(C(=O)O)CC3)ccnc1CO [Example 586, (1r,2′S,4S)-4-(3-chloroanilino)-2′-[(2R)-3-{[2-(hydroxymethyl)-3-methylpyridin-4-yl]oxy}-2-methylpropyl]-2′,3′-dihydrospiro[cyclohexane-1,1′-indene]-4-carboxylic acid] | 0.00262 | – | 1.61
3 | Cc1cccc2c1CC(C[C@@H](C)COc1ccnc3c1[C@H](C)CCC3)[C@]21CC[C@](Nc2cccc(Cl)c2)(C(=O)O)CC1 (single isomer, unassigned) [Example 754] | 0.00123 | – | 0.0966
4 | O=C(O)[C@]1(Nc2cccc(Cl)c2)CC[C@@]2(CC1)c1ccccc1C[C@@H]2C[C@H](COc1ccnc2ccsc12)c1ccccc1 [Example 547, (1r,2′S,4S)-4-(3-chloroanilino)-2′-{(2S)-2-phenyl-3-[(thieno[3,2-b]pyridin-7-yl)oxy]propyl}-2′,3′-dihydrospiro[cyclohexane-1,1′-indene]-4-carboxylic acid] | 0.00695 | – | 0.376
5 | C[C@@H](COc1ccnc2ccsc12)C[C@@H]1Cc2ccc(F)cc2[C@]12CC[C@@](Nc1cccc(Cl)c1)(C(=O)O)CC2 [Example 736, (1r,2′R,4R)-4-(3-chloroanilino)-6′-fluoro-2′-{(2R)-2-methyl-3-[(thieno[3,2-b]pyridin-7-yl)oxy]propyl}-2′,3′-dihydrospiro[cyclohexane-1,1′-indene]-4-carboxylic acid] | 0.00519 | – | 1.22

Further molecules by falling Ki [1], results first:

Row | Ki [1] [µM] | Structure (SMILES) | IC50 [2] [µM] | IC50 ([2]; Homo sapiens, NCI-H929, 48 h) [µM]
6 | 0.0687 | Cc1cc(OC[C@H](C)C[C@H]2Cc3ccccc3[C@]23CC[C@@](Nc2cccc(Cl)c2)(C(=O)O)CC3)c2c(n1)CCCC2C (single isomer, unassigned) [Example 662] | 9.06 | –
7 | 0.0296 | C[C@@H](COc1ccnc2c1[C@H](CC(F)(F)F)CCC2)C[C@H]1Cc2ccccc2[C@]12CC[C@@](Nc1cccc(Cl)c1)(C(=O)O)CC2 [Example 695, (1r,2′S,4S)-4-(3-chloroanilino)-2′-[(2R)-2-methyl-3-{[(5S)-5-(2,2,2-trifluoroethyl)-5,6,7,8-tetrahydroquinolin-4-yl]oxy}propyl]-2′,3′-dihydrospiro[cyclohexane-1,1′-indene]-4-carboxylic acid] | – | 3.24
8 | 0.00294 | CC[C@@H]1CCCc2nccc(OC[C@H](C)C[C@H]3Cc4ccccc4[C@]34CC[C@@](Nc3cccc(Cl)c3)(C(=O)O)CC4)c21 [Example 657, (1r,2′S,4S)-4-(3-chloroanilino)-2′-[(2R)-3-{[(5R)-5-ethyl-5,6,7,8-tetrahydroquinolin-4-yl]oxy}-2-methylpropyl]-2′,3′-dihydrospiro[cyclohexane-1,1′-indene]-4-carboxylic acid] | – | 0.139
9 | 0.000194 | C[C@@H](COc1ccnc2c1[C@H](C)CCC2)C[C@H]1Cc2ccccc2[C@]12CC[C@@](Nc1ccc(F)c(Cl)c1)(C(=O)O)CC2 [Example 702, (1r,2′S,4S)-4-(3-chloro-4-fluoroanilino)-2′-[(2R)-2-methyl-3-{[(5R)-5-methyl-5,6,7,8-tetrahydroquinolin-4-yl]oxy}propyl]-2′,3′-dihydrospiro[cyclohexane-1,1′-indene]-4-carboxylic acid] | – | 0.0415
